Assay: Solubility of the potassium salts equilibrated in aqueous potassium carbonate solutions
Type: physicochemical
Text: The data was gathered by equilibrating the potassium salts of 2-KNA and 2,6-K2NDA in aqueous solutions of potassium carbonate. The capped jars were contained in water baths to control the temperature and were magnetically stirred to speed the dissolution of the solids. Data derived from the solubility studies are outlined in Table 6.

[1] = 10 wt % K2CO3 aqueous solution, 35° C.
[2] = 15 wt % K2CO3 aqueous solution, 35° C.
[3] = 20 wt % K2CO3 aqueous solution, 35° C.
[4] = 20 wt % K2CO3 aqueous solution, 80° C.
[5] = 25 wt % K2CO3 aqueous solution, 35° C.
[6] = 25 wt % K2CO3 aqueous solution, 80° C.
[7] = 30 wt % K2CO3 aqueous solution, 35° C.
[8] = 30 wt % K2CO3 aqueous solution, 80° C.

Solubility Ratio 2,6-K2NDA/2-KNA (10 wt % K2CO3, 35° C.) | Solubility [1] [wt %] | Solubility Ratio 2,6-K2NDA/2-KNA (15 wt % K2CO3, 35° C.) | Solubility [2] [wt %] | Solubility Ratio 2,6-K2NDA/2-KNA (20 wt % K2CO3, 35° C.) | Solubility Ratio 2,6-K2NDA/2-KNA (20 wt % K2CO3, 80° C.) | Solubility [3] [wt %] | Solubility [4] [wt %] | Solubility Ratio 2,6-K2NDA/2-KNA (25 wt % K2CO3, 35° C.) | Solubility Ratio 2,6-K2NDA/2-KNA (25 wt % K2CO3, 80° C.) | Solubility [5] [wt %] | Solubility [6] [wt %] | Solubility Ratio 2,6-K2NDA/2-KNA (30 wt % K2CO3, 35° C.) | Solubility Ratio 2,6-K2NDA/2-KNA (30 wt % K2CO3, 80° C.) | Solubility [7] [wt %] | Solubility [8] [wt %] | Temperature dependence of solubility (aqueous K2CO3 solutions, 35° C. vs 80° C.) | SMILES
0.41 | 13.8 | 0.52 | 6.8 | 1.13 | 0.13 | 2.4 | 5.5 | 1.41 | 0.08 | 0.6 | 1.6 | 1.33 | 0.08 | 0.2 | 0.6 | only a weak function of temperature | O=C([O-])c1ccc2cc(C(=O)[O-])ccc2c1.[K+].[K+] [2,6-K2NDA, dipotassium salt of 2,6-NDA]
 | 33.9 |  | 13.2 |  |  | 2.1 | 41.1 |  |  | 0.4 | 19.2 |  |  | 0.2 | 7.4 |  | O=C([O-])c1ccc2ccccc2c1.[K+] [2-KN]

Source: patent US6448436B1, “Integrated process for the production of 2, 6-naphthalene dicarboxylic acid” (Mossi & Ghisolfi Overseas, S. A., priority 1999, dated 2002)
